Test results published in patent US7713701B2, “DNA-binding polymers” (California Institute of Technology, priority 2004, dated 2010).
“And” between values parts separate entries of the source, which are not always exact repeats. Equal values may be shown once.

Tests used:
[1] = system: C-G base pair at N-terminal position of binding site 5′-A T N T A C A-3′ (N=C), 285 bp PCR product from plasmid pCW15; experiment: Quantitative DNase I footprint titration, C-G site; conditions: 22° C., pH 7.0, 10 mM Tris-HCl, 10 mM KCl, 10 mM MgCl2, 5 mM CaCl2, mean of at least three, SD in parentheses
Method: (§1) Oligonucleotide primers SF1 (5′-AATTC-GAGCTCGGTACCGGGG-3′; SEQ ID NO:1) and SF2(5′-[…]-3′; SEQ ID NO:2) were synthesized by the Biopolymer Synthesis Center at the California Institute of Technology. Products from PCR amplification of the pCW15 using 5′-[γ-^32P]-labeled SF1 and SF2 were purified on a 7% non-denaturing polyacrylamide gel. Glycogen (20 mg/mL), dNTPs (PCR nucleotide mix), and all enzymes, unless otherwise stated, were purchased from Boehringer-Mannheim. Deoxyadenosine [γ-^32P]triphosphate was obtained from ICN. Calf thymus DNA (sonicated, deproteinized) and DNase I (7500 units/mL. FPLC pure) were from Amersham Pharmacia. AmpliTaq DNA polymerase was obtained from Perkin-Elmer and was used with provided buffers. Tris.HCl, DTT, RNase-free water, and 0.5 M EDTA were from United States Biochemical. Calcium chloride, potassium chloride, and magnesium chloride were purchased from Fluka. Tris-borate-EDTA was from GIBCO and bromophenol blue was from Acros. All reagents were used without further purification.
(§2) The DNA sequence specificity of novel thiophene-2-carboxamide-containing polymers (DNA-binding polymers 1-8) was evaluated by comparing their affinities for each Watson-Crick base pair to those of N-methylimidazole (Im) and N-methylpyrrole (Py) (DNA-binding polymers 9-10). […] Affinities were determined using DNase I footprinting, as performed by standard protocols (e.g., Trauger et al., Methods Enzymol. 2001, 340, 450).
(§3) Briefly, Quantitative DNase I footprinting titration experiments (10 mM Tris-HCl. 10 mM KCl, 10 mM MgC2, 5 mM CaCl2, pH 7.0, 22° C.) were performed on 5′-^32P end-labeled, 285 bp PCR product from plasmid construct pCW15 (as described previously in Ellervik et al., J. Am. Chem. Soc. 2000, 122, 9354). This plasmid contains four binding sites that vary at a single N-terminal position, 5′-A T N T A C A-3′, where N=T, A, G, C. The divergent behavior of control DNA-binding polymers 9 and 10 illustrates the need for development of new N-terminal residues.

[2] = system: T-A base pair at N-terminal position of binding site 5′-A T N T A C A-3′ (N=T), 285 bp PCR product from plasmid pCW15; experiment: Quantitative DNase I footprint titration, T-A site; conditions: for Equilibrium association constant, T-A: DNase I footprint titration, 22° C., pH 7.0, 10 mM Tris-HCl, 10 mM KCl, 10 mM MgCl2, 5 mM CaCl2, mean of at least three, SD in parentheses; for preference / specificity for T-A relative to G-C / selectivity for T-A relative to A-T: ratio of association constants
Method: as §1, §2, §3

[3] = system: A-T base pair at N-terminal position of binding site 5′-A T N T A C A-3′ (N=A), 285 bp PCR product from plasmid pCW15; experiment: Quantitative DNase I footprint titration, A-T site; conditions: 22° C., pH 7.0, 10 mM Tris-HCl, 10 mM KCl, 10 mM MgCl2, 5 mM CaCl2, mean of at least three, SD in parentheses
Method: as §1, §2, §3

[4] = system: G-C base pair at N-terminal position, binding site 5′-A T G T A C A-3′, 285 bp PCR product from plasmid pCW15; experiment: Quantitative DNase I footprint titration, G-C site; conditions: for Equilibrium association constant, G-C: DNase I footprint titration, 22° C., pH 7.0, 10 mM Tris-HCl, 10 mM KCl, 10 mM MgCl2, 5 mM CaCl2, mean of at least three, SD in parentheses
Method: as §1, §2, §3

[5] = system: four binding sites 5′-A T N T A C A-3′, N=T, A, G, C, of pCW15 PCR product; experiment: DNase I footprinting, sequence specificity across the four sites; conditions: comparison of affinities for the four Watson-Crick base pairs
Method: as §1, §2, §3

Row | Structure (SMILES) | Equilibrium association constant, C-G [1] | Equilibrium association constant, T-A [2] | preference / specificity for T-A relative to G-C [2] [fold] | Equilibrium association constant, A-T [3] | Equilibrium association constant, G-C [4] | selectivity for T-A relative to A-T [2] [fold] | preference for G-C relative to T-A, A-T, and C-G base pairs ([4]; ratio of association constants) [fold] | sequence specificity (in words) [5]
1 | Cc1ccsc1C(=O)Nc1cc(C(=O)Nc2cc(C(=O)Nc3cc(C(=O)NCCCC(=O)Nc4cn(C)c(C(=O)Nc5cc(C(=O)Nc6cc(C(=O)Nc7cc(C(=O)NCCC(=O)NCCCN(C)C)n(C)c7)n(C)c6)n(C)c5)n4)n(C)c3)n(C)c2)n(C)c1 [compound 2] | 1.0 (0.3) × 10^7 M^−1 | 2.3 (0.4) × 10^9 M^−1 | 140 | 1.4 (0.2) × 10^9 M^−1 | 1.0 (0.4) × 10^7 M^−1 |  |  | 
2 | CN(C)CCCNC(=O)CCNC(=O)c1cc(NC(=O)c2cc(NC(=O)c3cc(NC(=O)c4nc(NC(=O)CCCNC(=O)c5cc(NC(=O)c6cc(NC(=O)c7cc(NC(=O)c8cccs8)cn7C)cn6C)cn5C)cn4C)cn3C)cn2C)cn1C [compound 1] | 2.2 (0.3) × 10^9 M^−1 | 6.0 (0.7) × 10^9 M^−1 |  | 4.7 (0.7) × 10^9 M^−1 | 4.3 (0.4) × 10^8 M^−1 |  |  | little sequence specificity
3 | COc1ccsc1C(=O)Nc1cc(C(=O)Nc2cc(C(=O)Nc3cc(C(=O)NCCCC(=O)Nc4cn(C)c(C(=O)Nc5cc(C(=O)Nc6cc(C(=O)Nc7cc(C(=O)NCCC(=O)NCCCN(C)C)n(C)c7)n(C)c6)n(C)c5)n4)n(C)c3)n(C)c2)n(C)c1 [compound 6] | ≦1.0 × 10^7 M^−1 | 2×10^9 M^−1 and 2.0 (0.4) × 10^9 M^−1 | > 200 | 3.2 (0.6) × 10^8 M^−1 | ≦1.0 × 10^7 M^−1 | 6 |  | 
4 | CC(=O)Nc1ccsc1C(=O)Nc1cc(C(=O)Nc2cc(C(=O)Nc3cc(C(=O)NCCCC(=O)Nc4cn(C)c(C(=O)Nc5cc(C(=O)Nc6cc(C(=O)Nc7cc(C(=O)NCCC(=O)NCCCN(C)C)n(C)c7)n(C)c6)n(C)c5)n4)n(C)c3)n(C)c2)n(C)c1 [compound 4] | 6.0 (0.2) × 10^8 M^−1 | 5.9 (0.3) × 10^9 M^−1 |  | 2.9 (0.1) × 10^9 M^−1 | 6.6 (0.4) × 10^8 M^−1 |  |  | distinguish T-A from G-C but again do not distinguish T-A from A-T
5 | CN(C)CCCNC(=O)CCNC(=O)c1cc(NC(=O)c2cc(NC(=O)c3cc(NC(=O)c4nc(NC(=O)CCCNC(=O)c5cc(NC(=O)c6cc(NC(=O)c7cc(NC(=O)c8cccn8C)cn7C)cn6C)cn5C)cn4C)cn3C)cn2C)cn1C [compound 10] | 2.6 (0.3) × 10^8 M^−1 | 5.1 (0.6) × 10^9 M^−1 |  | 3.1 (0.3) × 10^9 M^−1 | 1.1 (0.1) × 10^9 M^−1 |  |  | little sequence specificity
6 | CN(C)CCCNC(=O)CCNC(=O)c1cc(NC(=O)c2cc(NC(=O)c3cc(NC(=O)c4nc(NC(=O)CCCNC(=O)c5cc(NC(=O)c6cc(NC(=O)c7cc(NC(=O)c8nccn8C)cn7C)cn6C)cn5C)cn4C)cn3C)cn2C)cn1C [compound 9] | 3.2 (0.4) × 10^9 M^−1 | 3.8 (0.3) × 10^9 M^−1 |  | 2.8 (0.2) × 10^9 M^−1 |  |  | > 15 | 

Second part, led by results:

Row | Equilibrium association constant, C-G [1] | Equilibrium association constant, T-A [2] | preference / specificity for T-A relative to G-C [2] [fold] | Equilibrium association constant, A-T [3] | Equilibrium association constant, G-C [4] | selectivity for T-A relative to A-T [2] [fold] | preference for G-C relative to T-A, A-T, and C-G base pairs ([4]; ratio of association constants) [fold] | Structure (SMILES) | sequence specificity (in words) [5]
7 | 8.4 (0.1) × 10^7 M^−1 | 6.2 (0.6) × 10^9 M^−1 |  | 4.5 (0.6) × 10^9 M^−1 | 2.1 (0.3) × 10^8 M^−1 |  |  | CN(C)CCCNC(=O)CCNC(=O)c1cc(NC(=O)c2cc(NC(=O)c3cc(NC(=O)c4nc(NC(=O)CCCNC(=O)c5cc(NC(=O)c6cc(NC(=O)c7cc(NC(=O)c8sccc8O)cn7C)cn6C)cn5C)cn4C)cn3C)cn2C)cn1C [compound 5] | distinguish T-A from G-C but again do not distinguish T-A from A-T
8 | 2.9 (0.3) × 10^8 M^−1 | 1.2 (0.2) × 10^10 M^−1 |  | 3.9 (0.3) × 10^9 M^−1 | 3.7 (0.4) × 10^8 M^−1 | 3 |  | CN(C)CCCNC(=O)CCNC(=O)c1cc(NC(=O)c2cc(NC(=O)c3cc(NC(=O)c4nc(NC(=O)CCCNC(=O)c5cc(NC(=O)c6cc(NC(=O)c7cc(NC(=O)c8sccc8F)cn7C)cn6C)cn5C)cn4C)cn3C)cn2C)cn1C [compound 7] | 
9 | 2.2 (0.3) × 10^8 M^−1 | 6.3 (1.0) × 10^9 M^−1 |  | 4.6 (0.6) × 10^9 M^−1 | 7.8 (0.9) × 10^8 M^−1 |  |  | CN(C)CCCNC(=O)CCNC(=O)c1cc(NC(=O)c2cc(NC(=O)c3cc(NC(=O)c4nc(NC(=O)CCCNC(=O)c5cc(NC(=O)c6cc(NC(=O)c7cc(NC(=O)c8sccc8N)cn7C)cn6C)cn5C)cn4C)cn3C)cn2C)cn1C [compound 3] | distinguish T-A from G-C but again do not distinguish T-A from A-T
10 | 2.1 (1.1)× 10^8 M^−1 | 1.3 (0.2) × 10^10 M^−1 |  | 3.7 (0.2) × 10^9 M^−1 | 3.1 (0.6) × 10^8 M^−1 | 3 |  | CN(C)CCCNC(=O)CCNC(=O)c1cc(NC(=O)c2cc(NC(=O)c3cc(NC(=O)c4nc(NC(=O)CCCNC(=O)c5cc(NC(=O)c6cc(NC(=O)c7cc(NC(=O)c8sccc8Cl)cn7C)cn6C)cn5C)cn4C)cn3C)cn2C)cn1C [compound 8] | 
